Experimental data from US20240400577A1, “MODULATORS OF PROTEIN KINASES” (VIBLIOME THERAPEUTICS, LLC, priority 2021, published 2024).

What was measured:
Assay in all cases: Kinase panel enzymatic inhibition assay (Nanosyn)
Format in all cases: biochemical
RIPK1 = target: T1, RIPK1 (Homo sapiens, UniProt Q13546); conditions: ATP at Km; 30-minute pre-incubation; read-out: kinase inhibition in terms of IC50, RIPK1
T1 construct: purchased Nanosyn
T1 sequence (Q13546 1-671): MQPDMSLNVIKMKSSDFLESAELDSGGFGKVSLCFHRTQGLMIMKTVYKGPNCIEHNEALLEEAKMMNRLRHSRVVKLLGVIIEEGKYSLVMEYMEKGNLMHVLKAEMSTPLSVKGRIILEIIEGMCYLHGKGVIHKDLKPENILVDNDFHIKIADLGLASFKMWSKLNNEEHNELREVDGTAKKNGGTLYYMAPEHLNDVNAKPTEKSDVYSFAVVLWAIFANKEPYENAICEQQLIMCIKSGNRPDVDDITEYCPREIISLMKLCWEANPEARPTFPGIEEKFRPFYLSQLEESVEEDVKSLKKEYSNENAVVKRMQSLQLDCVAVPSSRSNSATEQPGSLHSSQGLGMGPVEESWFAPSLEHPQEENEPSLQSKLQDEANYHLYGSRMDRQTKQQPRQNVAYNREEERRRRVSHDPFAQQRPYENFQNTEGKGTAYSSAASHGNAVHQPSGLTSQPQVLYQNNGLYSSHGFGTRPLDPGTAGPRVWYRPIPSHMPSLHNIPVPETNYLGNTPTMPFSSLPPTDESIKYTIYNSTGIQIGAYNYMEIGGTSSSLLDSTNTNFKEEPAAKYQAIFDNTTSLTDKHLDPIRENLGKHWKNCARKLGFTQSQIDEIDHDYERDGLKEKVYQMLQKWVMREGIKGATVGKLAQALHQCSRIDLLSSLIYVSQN
Method in brief: (§1)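 Single-point screen: compound 5 μM, ATP at Km per kinase, 30 min pre-incubation. Readout by mobility shift (Caliper LabChip), ADP detection or TR-fluorescence. Reported as % inhibition or IC50.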

RIPK3 = target: T2, RIPK3 (Homo sapiens, UniProt Q9Y572); conditions: ATP at Km; 30-minute pre-incubation; read-out: kinase inhibition in terms of IC50, RIPK3
T2 construct: purchased Nanosyn
Method in brief: as §1

RIPK2 = target: T3, RIPK2 (Homo sapiens, UniProt O43353); conditions: ATP at Km; 30-minute pre-incubation; read-out: kinase inhibition in terms of IC50, RIPK2
T3 construct: purchased Nanosyn
Method in brief: as §1

T2 sequence (Q9Y572 whole entry): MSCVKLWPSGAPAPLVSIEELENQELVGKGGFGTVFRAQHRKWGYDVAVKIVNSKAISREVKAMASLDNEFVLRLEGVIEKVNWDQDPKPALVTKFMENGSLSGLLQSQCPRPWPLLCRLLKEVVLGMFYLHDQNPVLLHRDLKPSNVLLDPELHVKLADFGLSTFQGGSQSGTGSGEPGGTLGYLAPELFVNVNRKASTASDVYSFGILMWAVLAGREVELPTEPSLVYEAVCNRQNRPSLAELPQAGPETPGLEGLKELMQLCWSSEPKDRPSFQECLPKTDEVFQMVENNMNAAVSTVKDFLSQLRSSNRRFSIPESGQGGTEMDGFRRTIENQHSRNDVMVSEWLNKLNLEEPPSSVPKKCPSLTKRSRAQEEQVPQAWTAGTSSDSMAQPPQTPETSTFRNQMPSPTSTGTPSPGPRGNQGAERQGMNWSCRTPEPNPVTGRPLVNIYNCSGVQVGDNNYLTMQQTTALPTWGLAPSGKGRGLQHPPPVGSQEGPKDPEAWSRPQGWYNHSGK
T3 sequence (O43353 whole entry): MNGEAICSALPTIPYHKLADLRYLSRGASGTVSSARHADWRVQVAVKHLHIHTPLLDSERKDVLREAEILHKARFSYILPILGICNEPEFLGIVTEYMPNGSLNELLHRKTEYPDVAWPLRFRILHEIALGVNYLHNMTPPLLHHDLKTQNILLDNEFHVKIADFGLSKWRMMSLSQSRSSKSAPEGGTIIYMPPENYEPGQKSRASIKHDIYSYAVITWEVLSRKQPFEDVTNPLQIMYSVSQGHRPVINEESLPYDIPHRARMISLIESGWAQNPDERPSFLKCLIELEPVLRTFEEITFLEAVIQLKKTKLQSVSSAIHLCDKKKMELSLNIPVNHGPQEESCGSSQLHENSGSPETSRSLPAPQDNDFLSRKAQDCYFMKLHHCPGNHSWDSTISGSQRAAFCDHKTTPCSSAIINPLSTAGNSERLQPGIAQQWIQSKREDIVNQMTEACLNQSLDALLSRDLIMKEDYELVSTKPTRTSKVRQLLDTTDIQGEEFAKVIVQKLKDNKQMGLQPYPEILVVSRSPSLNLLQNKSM

## COc1cc2nccc(Oc3ccc(NC(=O)c4cc(S(C)(=O)=O)n(-c5ccc(F)cc5)n4)c(F)c3)c2cc1OC [Ex71, N-(4-((6,7-dimethoxyquinolin-4-yl)oxy)-2-fluorophenyl)-1-(4-fluorophenyl)-5-(methylsulfonyl)-1H-pyrazole-3-carboxamide]
RIPK1
  IC50: ≥ 10 µM
RIPK3
  IC50: 1 to 10 µM
RIPK2
  IC50: 0.5 to 1 µM
